Assay [1] relates to Trypanosoma cruzi. Kind of assay: Antiparasitic activity against Trypanosoma cruzi Tulahuen C2C4 amastigotes. The class given is functional, organism-based.
Assay [2] has as its system L6. Kind of assay: Cytotoxicity against rat L6 cells. The class given is cell-based.
A short description of assay [3]: Selectivity index, ratio of EC50 for Trypanosoma cruzi Tulahuen C2C4 amastigotes to the EC50 for rat L6 cells.
Assay [4] deals with Leishmania donovani. Nature of the assay: Antiparasitic activity against Leishmania donovani MHOM/ET/67/L82 amastigotes. The assay is classed as functional, organism-based.
The subject of assay [5] is Trypanosoma brucei rhodesiense. Nature of the assay: Antiparasitic activity against Trypanosoma brucei rhodesiense STIB900 bloodstream form. The class given is functional, organism-based.
Assay [6] concerns the target Trypanothione reductase (Trypanosoma cruzi, UniProt P28593). Nature of the assay: Inhibition of Trypanosoma cruzi X10/1 recombinant trypanothione reductase assessed as increase in absorbance at 410 nm due to the formation of TNB.
Assay [7] relates to Plasmodium falciparum. Nature of the assay: Antiparasitic activity against Plasmodium falciparum 3D7 at erythrocytic stage. The assay is classed as functional, organism-based.

Some results are limits rather than exact numbers.

We go through 39 compounds from ChEMBL document CHEMBL1155430, “Discovery of novel and potent benzhydryl-tropane trypanocides highly selective for Trypanosoma cruzi” (Bioorg Med Chem Lett, 2010).

Sequence of Trypanothione reductase (P28593 whole entry): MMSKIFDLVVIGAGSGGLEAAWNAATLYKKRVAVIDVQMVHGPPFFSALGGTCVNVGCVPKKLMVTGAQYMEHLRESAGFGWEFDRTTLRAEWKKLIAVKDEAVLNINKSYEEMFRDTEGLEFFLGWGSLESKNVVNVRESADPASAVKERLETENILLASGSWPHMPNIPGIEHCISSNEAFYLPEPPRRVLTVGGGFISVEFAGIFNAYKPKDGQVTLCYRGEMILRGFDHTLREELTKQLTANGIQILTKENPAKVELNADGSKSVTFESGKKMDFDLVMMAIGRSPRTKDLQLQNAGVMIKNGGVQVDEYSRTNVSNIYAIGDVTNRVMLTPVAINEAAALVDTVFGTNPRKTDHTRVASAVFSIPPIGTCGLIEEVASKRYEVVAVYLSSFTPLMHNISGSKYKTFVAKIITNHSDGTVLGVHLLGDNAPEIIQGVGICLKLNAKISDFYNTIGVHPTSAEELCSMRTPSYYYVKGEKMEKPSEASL

Take `CN1C2CCC1CC(=NOC(c1ccccc1)c1ccccc1Cl)C2` (stereo not drawn): the concentration giving a half-maximal response (EC50) (in general, the concentration that produces a half-maximal response) is 6.8 µM in assay [1] and 15 µM in assay [2].
`CN1C2CCC1CC(=NOC(Cc1ccc(Cl)cc1)c1ccccc1)C2` (stereo not drawn): the EC50 in assay [1] was determined as 1.9 µM; in assay [2] it was 49 µM.
Consider `CN1C2CCC1CC(=NOCc1ccccc1)C2`, for which the EC50 is over 10 µM in assay [1] and over 100 µM in assay [2].
The like results for `CC(C)=NOC(c1ccccc1)c1ccc(Cl)cc1` (stereo not drawn) were, in that order, over 10 µM and over 100 µM.
For `CN1C2CCC1CC(=NOC(CCc1ccc(Cl)cc1)c1ccccc1)C2` (stereo not drawn), in that order: 0.8 µM and 16 µM.
Regarding `CN1C2CCC1CC(=NOC1c3ccccc3-c3ccccc31)C2`, the half-maximal effective concentration (EC50) in assay [1] was over 10 µM; in assay [2], 68 µM.
With `CN1C2CCC1CC(=NOC(c1ccccc1)c1cccc(Cl)c1)C2` (stereo not drawn), the EC50 in assay [1] stood at 2.1 µM; in assay [2], 19 µM.
The like results for `COc1ccccc1C(ON=C1CC2CCC(C1)N2C)c1ccccc1` (stereo not drawn) were, in that order, over 10 µM and over 100 µM.
The like results for `OCCN1C2CCC1CC(=NOC(c1ccccc1)c1ccc(Cl)cc1)C2` (stereo not drawn) were, in that order, 7.8 µM and 47 µM.
For `CN1C2CCC1CC(=NOC(CCc1ccccc1)c1ccc(Cl)cc1)C2` (stereo not drawn), in that order: 6.5 µM and 20 µM.
`CN1CCC(=NOC(c2ccccc2)c2ccc(Cl)cc2)CC1` (stereo not drawn): the EC50 in assay [1] was 3.7 µM; in assay [2], 50 µM.
With `CN1C2CCC1CC(=NOC(c1ccc(Cl)cc1)c1ccccn1)C2` (stereo not drawn), the EC50 in assay [1] is 2.9 µM; in assay [2], over 100 µM.
For `CN1C2CCC1CC(=NOC(c1ccc(Cl)cc1)c1cncs1)C2` (stereo not drawn), in that order: 6 µM and over 100 µM.
Consider `CN1C2CCC1CC(=NOC(Cc1ccccc1)c1ccc(Cl)cc1)C2` (stereo not drawn), for which the concentration for a half-maximal effect (EC50) in assay [1] was determined as 2.1 µM; in assay [2] it was 40 µM.
As to `CN1C2CCC1CC(=NOC(c1ccccc1)c1ccccc1)C2`, the EC50 in assay [1] is 1.3 µM; in assay [2], over 100 µM.
The like results for `COc1ccc(C(ON=C2CC3CCC(C2)N3C)c2ccccc2)cc1` (stereo not drawn) were, in that order, 0.3 µM and over 100 µM.
For `COc1cccc(C(ON=C2CC3CCC(C2)N3C)c2ccccc2)c1` (stereo not drawn), the EC50 is 2 µM in assay [1] and 48 µM in assay [2].
The like results for `CN1C2CCC1CC(=NOC(c1ccc(Cl)cc1)c1cscn1)C2` (stereo not drawn) were, in that order, 0.8 µM and 71 µM.
For the compound `CN(C)CCN1C2CCC1CC(=NOC(c1ccccc1)c1ccc(Cl)cc1)C2` (stereo not drawn), the EC50 in assay [1] came to 6.9 µM; in assay [2], 15 µM.
The like results for `CN1C2CCC1CC(=NOC(c1ccccc1)c1ccc(C#N)cc1)C2` (stereo not drawn) were, in that order, 0.4 µM and 53 µM.
Turning to `CN1C2CCC1CC(=NOC(c1ccccc1)c1ccc(F)cc1)C2` (stereo not drawn), the EC50 in assay [1] was found to be 0.8 µM; in assay [2] it was 50 µM.
`CN1C2CCC1CC(=NOC(c1ccccc1)c1ccc(Br)cc1)C2` (stereo not drawn): the EC50 turned out to be 0.04 µM in assay [1] and 40 µM in assay [2].
For `CN1C2CCC1CC(=NOC(c1ccccc1)c1ccc(I)cc1)C2` (stereo not drawn), in that order: 0.04 µM and 39 µM.
Take `Cc1ccc(C(ON=C2CC3CCC(C2)N3C)c2ccccc2)cc1` (stereo not drawn): the concentration giving a half-maximal response (EC50) was 0.3 µM in assay [1] and 51 µM in assay [2].
As for `CN1C2CCC1CC(=NOC(c1ccccc1)c1ccc(C(F)(F)F)cc1)C2` (stereo not drawn), the EC50 in assay [1] was 0.03 µM; in assay [2] it was 35 µM. In addition, the “Ratio EC50” value in assay [3] is over 1000.
In the case of `CN1C2CCC1CC(=NOC(c1ccc(Cl)cc1)c1ccc(Cl)cc1)C2`, the values for the concentration for a half-maximal effect (EC50) in assay [1] and in assay [2] were 6 µM and 16 µM, respectively.
For `CN1C2CCC1CC(=NOC(CCCc1ccccc1)c1ccc(Cl)cc1)C2` (stereo not drawn), in that order: 4.3 µM and 17 µM.
The like results for `Clc1ccc(C(ON=C2CCCCC2)c2ccccc2)cc1` (stereo not drawn) were, in that order, over 10 µM and over 100 µM.
In the case of `CN1C2CCC1CC(=NOC(c1ccc(Cl)cc1)c1cccnc1)C2` (stereo not drawn), the concentration for a half-maximal effect (EC50) is 0.5 µM in assay [1] and over 100 µM in assay [2].
For `CN1C2CCC1CC(=NOC(c1ccncc1)c1ccc(Cl)cc1)C2` (stereo not drawn), in that order: 6.2 µM and over 100 µM.
For `CN1C2CCC1CC(=NOC(c1ccc(Cl)cc1)c1nccs1)C2` (stereo not drawn), in that order: 2.3 µM and over 100 µM.
As to `CN1C2CCC1CC(=NOCc1ccc(Cl)cc1)C2`, the EC50 in assay [1] was over 10 µM; in assay [2], over 100 µM.
For `Clc1ccc(C(ON=C2CC3CCC(C2)N3)c2ccccc2)cc1` (stereo not drawn), in that order: 2 µM and 9.8 µM.
With `CN1C2CCC1CC(=NOC(c1ccccc1)c1ccc(Cl)cc1)C2` (stereo not drawn), the concentration for a half-maximal effect (EC50) in assay [4] is over 30 µM; in assay [1] it was 0.11 µM; in assay [5], 3 µM; in assay [2] it was 36 µM; in assay [6], 35 µM; in assay [7], 7.5 µM.
For `O=C(Cn1ccnc1[N+](=O)[O-])NCc1ccccc1` [BENZNIDAZOLE], the concentration for a half-maximal effect (EC50) in assay [1] worked out at 1.8 µM.
In assay [7], `CCN(CC)CCCC(C)Nc1ccnc2cc(Cl)ccc12` (stereo not drawn) [CHLOROQUINE] gave an EC50 of 0.0094 µM.
`Nc1nc(N)nc(Nc2ccc([As]3SCC(CO)S3)cc2)n1` (stereo not drawn) [MELARSOPROL] registered a half-maximal effective concentration (EC50) in assay [5] of 0.017 µM.
`CCCCCCCCCCCCCCCCOP(=O)([O-])OCC[N+](C)(C)C` [MILTEFOSINE] showed an EC50 in assay [4] of 0.27 µM.
With `COc1cc([C@@H]2c3cc4c(cc3[C@H](O)[C@H]3COC(=O)[C@H]23)OCO4)cc(OC)c1OC` [PODOFILOX], in assay [2], the EC50 stood at 0.014 µM.
